# Test system: novel coronavirus mutant strain (alpha mutant strain)
# Type: cell-based, SARS-COV-2
Structure (SMILES),antiviral effect (number of viral RNA with increasing addition concentration),antiviral effect compared with the preparation / other alkaloids
COc1cc2c3cc1Oc1c(OC)c(OC)cc4c1[C@@H](Cc1ccc(O)c(c1)Oc1ccc(cc1)C[C@@H]3N(C)CC2)N(C)CC4 [Berbamine],showed antiviral effects,weak antiviral effect
COc1ccc2cc1Oc1ccc(cc1)C[C@H]1c3c(cc4c(c3Oc3cc5c(cc3OC)CCN(C)[C@@H]5C2)OCO4)CCN1C [Cepharanthine],showed antiviral effects,comparable to the Stephania cepharantha-derived alkaloid-containing preparation
COc1cc2c3c(c1OC)Oc1ccc(cc1)C[C@@H]1c4c(cc(OC)c(OC)c4Oc4ccc(cc4)C[C@H]3N(C)CC2)CCN1C [Cycleanine],showed antiviral effects,comparable to the Stephania cepharantha-derived alkaloid-containing preparation
COc1ccc2cc1Oc1ccc(cc1)C[C@H]1c3cc(c(OC)cc3CCN1C)Oc1c(OC)c(OC)cc3c1[C@@H](C2)N(C)CC3 [Isotetrandrine],showed antiviral effects,comparable to the Stephania cepharantha-derived alkaloid-containing preparation
